Source: BindingDB's records for patent US20250289812 (Shanghai Institute Of Materia Medica, 2025)

Target: T1, Proto-oncogene tyrosine-protein kinase Src [84-145] (UniProt P12931)
T1 construct: 84-145
Experiment: Surface Plasmon Resonance Experiment
Method: Experimental method: Surface plasmon resonance test was carried out on BIACORE T200 instrument (GE Company). Fresh purified grade Src kinase SH3 domain protein (concentration 2 mg/ml) was diluted to 0.1 mg/ml with 10 mM CH3COONa (pH 4.2) and then SH3 protein was coupled to the CM5 chip by standard amino coupling methods. The compounds of the invention were diluted in a gradient using a buffer solution (20 mM Tris-HCl, PH 8.0, 100 mM NaCl) for 60 seconds and dissociated for 120 seconds at a flow rate of […], respectively. The changes in response values over time were recorded and analyzed by the BIA Evaluation Software (GE Healthcare) program to obtain the dissociation constants KD for the different compounds with SH3 protein.

COc1cnc2c(c1)c(C(N)=O)c(CNC(=N)N)n2C [US20250289812, Example SYY-C036]
Kd: < 1000 nM

CCOC(=O)c1c(CNC(=N)N)n(C)c2cc(C3CC4CCC3C4)ccc12 (configuration not stated) [US20250289812, Example SYY-C069]
Kd: < 1000 nM
